This note sets out measurements from ChEMBL document CHEMBL1201862, “PubChem BioAssay data set” (2004).

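Dose response: 5 concentrations. Exposure: 48 h. Format: 96-well plates. Endpoint: linear interpolation; highest concentration if not reached. The concentration for 50% growth inhibition is given as GI50.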 The source made the active and inactive calls. Cut-off read from the data, not from the text of the source: active = GI50 up to about 1.1 µM and inactive = higher. Starred links: 1 amine or outer side, 2 acyl side, 3 side chain; linkers in the order of their positions; H or OH if unused. Positions of bridges follow the written chain, without caps; N, C: chain ends. Non-standard residues stand in square brackets, D forms with d. Residues, ends and D or L forms follow the SMILES beside them. Chains are numbered I, II in the order given. *: point of attachment. Actinocin(9to1) = Cc1c2oc3c(C)ccc(C(=O)[*:1])c3nc-2c(C(=O)[*:2])c(N)c1=O; NMeV = CN[CH](C(=O)O)C(C)C; Ac5c = NC1(C(=O)O)CCCC1; Cbz = O=C(OCc1ccccc1)*; Boc = CC(C)(C)OC(=O)*; Sar = CNCC(=O)O; tBu = CC(C)(C)*

Some test systems named below: PC-3; COLO 205; A549; EKVX; M14; CAKI-1; MCF7; T47D; NCI-H460; MOLT-4; SK-OV-3; UACC-257; IGROV-1; A498; CCRF-CEM; NCI/ADR-RES; MDA-MB-231; SW-620.
Holding throughout (assay): NCI anticancer screen, dose series, 48 h

Consider `COc1cc(/C=C(\C#N)c2nc3ccccc3o2)ccc1O`, for which the GI50 in the assay on PC-3 was 21.2 µM (inactive); with COLO 205, 16.9 µM (inactive); in the assay with A549, 17.8 µM (inactive); in the assay on EKVX, 21.6 µM (inactive); with M14, 13.6 µM (inactive); in the assay on CAKI-1, 17.3 µM (inactive). Further, the GI50 in the assay with MCF7 is 10 µM (inactive); with T47D, 13.3 µM (inactive); in the assay with NCI-H460 it was 15 µM (inactive); in the assay with MOLT-4 it was 28.5 µM (inactive); in the assay on SK-OV-3 it was 17.7 µM (inactive); in the assay on UACC-257, 23.5 µM (inactive). Also, the GI50 with IGROV-1 is 17.2 µM (inactive); with A498 it was 16.3 µM (inactive); in the assay with CCRF-CEM, 26.3 µM (inactive); with NCI/ADR-RES, 24.1 µM (inactive); with MDA-MB-231 it was 21.8 µM (inactive).

`O=C1CCC(NC(=O)c2ccccc2)C(=O)N1` (stereo not drawn): the GI50 in the assay on PC-3, in the assay on SW-620, with COLO 205, with A549, in the assay with EKVX and with M14 was > 100 µM (inactive) in each case. Moreover, the GI50 in the assay with CAKI-1 was > 100 µM (inactive); with MCF7, > 100 µM (inactive); in the assay on T47D, > 100 µM (inactive); in the assay with NCI-H460 it was > 100 µM (inactive); in the assay with MOLT-4, 2.97 µM (inactive); with SK-OV-3 it was > 100 µM (inactive). The GI50 in the assay on UACC-257, in the assay with IGROV-1, with A498, in the assay with NCI/ADR-RES and in the assay on MDA-MB-231 was > 100 µM (inactive) each time.

On to `COc1ccc2cc(C(=O)NCCCNC(=O)c3ccc4c(OC)c(OC)ccc4c3)ccc2c1OC`, for which the GI50 in the assay on PC-3, with SW-620, in the assay with COLO 205, in the assay with A549, with EKVX and with CAKI-1 was > 100 µM (inactive) in each case. Moreover, the GI50 with MCF7, in the assay on T47D, with NCI-H460, with MOLT-4, with SK-OV-3 and in the assay with UACC-257 was > 100 µM (inactive) throughout. For the same molecule, the GI50 in the assay on A498, in the assay on CCRF-CEM, in the assay on NCI/ADR-RES and in the assay on MDA-MB-231 was > 100 µM (inactive) in each case.

Take `CSC1=Nc2ccccc2-c2nc3ccccc3cc2C1`: the GI50 in the assay with PC-3, with COLO 205, with A549, in the assay on EKVX, with M14 and with CAKI-1 was > 100 µM (inactive) each time. In addition, the GI50 was > 100 µM (inactive) in the assay with MCF7; 25.9 µM (inactive) with T47D; > 100 µM (inactive) in the assay on NCI-H460; > 100 µM (inactive) with MOLT-4; > 100 µM (inactive) in the assay with SK-OV-3; > 100 µM (inactive) in the assay with UACC-257. Moreover, the GI50 in the assay on IGROV-1, with A498, in the assay on CCRF-CEM, in the assay on NCI/ADR-RES and in the assay on MDA-MB-231 was > 100 µM (inactive) each time.

For `O=c1[nH]c(=S)[nH]n1C(=S)n1[nH]c(=S)[nH]c1=O`, the GI50 in the assay with PC-3, in the assay with SW-620, in the assay on COLO 205, in the assay on A549, in the assay on EKVX and with M14 was > 100 µM (inactive) each time. Besides, the GI50 is > 100 µM (inactive) with CAKI-1; 2.94 µM (inactive) with MCF7; > 100 µM (inactive) in the assay with T47D; > 100 µM (inactive) in the assay on NCI-H460; > 100 µM (inactive) in the assay with MOLT-4; > 100 µM (inactive) in the assay with UACC-257. Further, the GI50 is > 100 µM (inactive) with IGROV-1; > 100 µM (inactive) in the assay with A498; 71.8 µM (inactive) with CCRF-CEM; > 100 µM (inactive) in the assay on NCI/ADR-RES; > 100 µM (inactive) in the assay on MDA-MB-231.

With `O=C(NC1C(=O)NC(CCc2ccccc2)NC1=O)OCc1ccccc1` (stereo not drawn), the GI50 with PC-3, in the assay with SW-620, in the assay on COLO 205, with A549, in the assay with EKVX and in the assay with M14 was > 100 µM (inactive) throughout. The GI50 in the assay on CAKI-1, in the assay with MCF7, in the assay on T47D, in the assay on NCI-H460, with MOLT-4 and in the assay on UACC-257 was > 100 µM (inactive) each time. Further, the GI50 with IGROV-1, in the assay on A498, in the assay on CCRF-CEM, with NCI/ADR-RES and in the assay on MDA-MB-231 was > 100 µM (inactive) each time.

Consider `O=[N+]([O-])c1ccc(-c2cn(-c3ccc(Cl)cc3)cn2)cc1`, for which the GI50 was > 100 µM (inactive) in the assay with PC-3; > 100 µM (inactive) in the assay with SW-620; > 100 µM (inactive) in the assay on COLO 205; 27.4 µM (inactive) in the assay with A549; 32.7 µM (inactive) in the assay on EKVX; > 100 µM (inactive) in the assay with M14. Also, the GI50 in the assay with CAKI-1 is > 100 µM (inactive); with MCF7 it was 71.6 µM (inactive); with T47D, 44.2 µM (inactive); in the assay on NCI-H460, 18.5 µM (inactive); in the assay with MOLT-4, > 100 µM (inactive); in the assay with SK-OV-3, 11.6 µM (inactive). Moreover, the GI50 in the assay on UACC-257 is > 100 µM (inactive); in the assay on IGROV-1, 41.6 µM (inactive); in the assay with A498, 40.7 µM (inactive); with CCRF-CEM, > 100 µM (inactive); with NCI/ADR-RES, 36.6 µM (inactive); with MDA-MB-231, 27.2 µM (inactive).

For `Cc1cc(N(CCC#N)CCC#N)ccc1C(/N=N/c1ccc(Cl)cc1)=N\NC(=O)c1ccccc1`, the GI50 in the assay on PC-3 was 32.5 µM (inactive); with COLO 205, 27.6 µM (inactive); in the assay on A549, 42.7 µM (inactive); with EKVX, 37.9 µM (inactive); with M14 it was 80.5 µM (inactive); in the assay with CAKI-1, 98.9 µM (inactive). Moreover, the GI50 in the assay on MCF7 is 13.6 µM (inactive); with T47D, 24.5 µM (inactive); in the assay with NCI-H460, 39.7 µM (inactive); in the assay on MOLT-4, 40 µM (inactive); in the assay on SK-OV-3, 42.6 µM (inactive); in the assay on UACC-257 it was 58.7 µM (inactive). Also, the GI50 was 24.5 µM (inactive) with IGROV-1; 13.6 µM (inactive) in the assay with A498; 31.5 µM (inactive) with CCRF-CEM; 27.4 µM (inactive) with NCI/ADR-RES; 34.6 µM (inactive) with MDA-MB-231.

Turning to `O=C1CC(Sc2nc3ccc(I)cc3c(=O)n2Cc2ccccc2)C(=O)NN1` (stereo not drawn), the GI50 is 17 µM (inactive) with PC-3; 18 µM (inactive) in the assay on SW-620; 19.1 µM (inactive) in the assay with COLO 205; 28.4 µM (inactive) in the assay on A549; 15.8 µM (inactive) with EKVX; 19.6 µM (inactive) in the assay with M14. Further, the GI50 in the assay on CAKI-1 is 2.81 µM (inactive); in the assay on MCF7, 15 µM (inactive); in the assay on T47D, 15.2 µM (inactive); with NCI-H460, 22.8 µM (inactive); in the assay with MOLT-4 it was 14.3 µM (inactive); with SK-OV-3, 16 µM (inactive). Further, the GI50 with UACC-257 was 18.3 µM (inactive); in the assay with IGROV-1, 11.8 µM (inactive); in the assay with A498, 12.7 µM (inactive); in the assay with CCRF-CEM it was 8.28 µM (inactive); in the assay with NCI/ADR-RES, 20.2 µM (inactive); with MDA-MB-231, 15.6 µM (inactive).

In the case of `COC(=O)C1(NC(=O)C(Cc2ccccc2)NC(=O)C(NC(=O)C(CCCCNC(=O)OC(C)(C)C)NC(=O)C(Cc2c[nH]c3ccccc23)NC(=O)C(Cc2ccccc2)NC(=O)OCc2ccccc2)C(C)OC(C)(C)C)CCCC1` (stereo not drawn) (Cbz-FWK(Boc)T(tBu)F[Ac5c]-OMe; configuration not given here), the GI50 in the assay with PC-3 was > 100 µM (inactive); in the assay on SW-620 it was 51.6 µM (inactive); with COLO 205 it was > 100 µM (inactive); in the assay on A549, > 100 µM (inactive); in the assay on EKVX, > 100 µM (inactive); with M14, 18.9 µM (inactive). Moreover, the GI50 was > 100 µM (inactive) with CAKI-1; > 100 µM (inactive) in the assay on MCF7; 24.6 µM (inactive) with T47D; > 100 µM (inactive) with NCI-H460; 93.3 µM (inactive) in the assay with SK-OV-3; > 100 µM (inactive) with UACC-257. In addition, the GI50 with IGROV-1 was 88.1 µM (inactive); in the assay on A498, > 10 µM (inactive); in the assay with CCRF-CEM, 98.9 µM (inactive); in the assay with NCI/ADR-RES it was > 100 µM (inactive); in the assay on MDA-MB-231, 25.9 µM (inactive).

Consider `Cc1c2oc3c(C)ccc(C(=O)NC4C(=O)NC(Cc5ccc(O)cc5)C(=O)N5CCCC5C(=O)N(C)CC(=O)N(C)C(C(C)C)C(=O)OC4C)c3nc-2c(C(=O)NC2C(=O)NC(Cc3ccc(O)cc3)C(=O)N3CCCC3C(=O)N(C)CC(=O)N(C)C(C(C)C)C(=O)OC2C)c(N)c1=O` (stereo not drawn) (I: TYP[Sar][NMeV] / II: TYP[Sar][NMeV]; ester I:1-I:C, II:1-II:C; linker I:N-II:N via Actinocin(9to1); configuration not given here), for which the GI50 in the assay with PC-3 was 4.11 µM (inactive); with SW-620, 0.33 µM (active); with COLO 205, 0.403 µM (active); in the assay on A549 it was 0.635 µM (active); with EKVX, 70.5 µM (inactive); in the assay on M14, 2.55 µM (inactive). For the same molecule, the GI50 is 3.57 µM (inactive) with CAKI-1; 0.0805 µM (active) in the assay on MCF7; 1.36 µM (inactive) in the assay on T47D; 0.215 µM (active) in the assay with NCI-H460; 0.178 µM (active) in the assay with MOLT-4; 10.5 µM (inactive) with SK-OV-3. The GI50 in the assay on UACC-257 is 1.56 µM (inactive); in the assay on IGROV-1, 0.149 µM (active); in the assay with A498, 16 µM (inactive); in the assay with NCI/ADR-RES, > 94 µM (inactive); in the assay with MDA-MB-231, 15.6 µM (inactive).
